Experimental data as given in EP3199156A1, “USE OF GLYCINE TRANSPORTER 1 ANTAGONISTS AS CENTRAL NERVOUS ANALGESICS” (Heinrich Heine Universität Düsseldorf, priority 2016, dated 2017).
Entries after “also recorded” stand apart in the source; their conditions may differ.

Legend:
Wistar Ratte = test: Mechanical allodynia (von Frey filament) after chronic constriction injury (CCI) of the left sciatic nerve, rat; type: in vivo; details: rats, day 10-12 after CCI
Description: (§1) Zum Beweis der Effektivität der Bitopertin-Applikation zur Behandlung neuropathischer Schmerzen wurde eine operative Ligatur des linken N. ischiadicus (Chronic Constriction Injury; CCI) der Wistar Ratte sowie C57BL/6-Maus induziert. Am Tag 10-12 nach CCI erhielten 2 Gruppen der Ratten randomisiert und verblindet eine einmalige orale Dosierungen von Bitopertin (0,3; 1 mg/kg), während die Kontrollgruppen Vehikel erhielten. Mechanische Allodynie wurde mittels eines halbautomatischen Frey Filaments (Ugo Basile) vor und 10-12 Tage nach CCI, sowie 1, 2, 4, 8 und 24 h nach Applikation von Bitopertin bzw. Vehikel überprüft. Zusätzlich wurde die Wirkung von Bitopertin 10 Tage nach CCI in Mäusen bei kontinuierlicher Langzeitapplikation mittels subkutan implantierter, osmotischer Mini-Infusionspumpen (2 mg/kg/Tag) über 27 Tage untersucht. Neuromotorische Wirkungen von Bitopertin in Mäusen wurden im Open-Field-Test 1 h nach Injektion bzw. bei kontinuierlicher Applikation nach 12 Tagen analysiert. Statistik: Alle Daten sind dargestellt als Mittelwerte ± Standardfehler; ANOVA und Bonferroni post hoc Test; Signifikanzniveau p<0,05.
In Figur 3 ist der Effekt des GlyT1-Inhibitors Bitopertin auf die mechanische Allodynie bei Nagern mit Neuropathie nach CCI dargestellt. Abbildung (A) zeigt den Effekt des GlyT1-Inhibitors Bitopertin auf die einmalige orale Applikation bei Ratten 0,3 mg/kg; n=9-11. […]

C57BL/6-Maus = test: Mechanical allodynia (von Frey filament, withdrawal threshold) after chronic constriction injury (CCI), mouse; type: in vivo
Mäusen = details: in vivo
Description: as §1

With `C[C@H](Oc1ccc(S(C)(=O)=O)cc1C(=O)N1CCN(c2ncc(C(F)(F)F)cc2F)CC1)C(F)(F)F` [Bitopertin] the “durch CCI induzierte mechanische Allodynie” value (Wistar Ratte; single oral dose 0,3 mg/kg, effect two and four hours after administration, Figur 3 A) was “Reduktion der durch CCI induzierten mechanischen Allodynie; also recorded: signifikanten Verminderung von mechanischer Allodynie”, the “durch CCI induzierte mechanische Allodynie” value (Wistar Ratte; single oral dose 1 mg/kg, compared with 0,3 mg/kg, Figur 3 B) was “vergleichbar ausprägten Effekten; also recorded: signifikanten Verminderung von mechanischer Allodynie” and the “Schmerzempfindlichkeit der neuropathischen Extremität (mechanische Allodynie)” value (C57BL/6-Maus; mice after CCI, continuous subcutaneous administration 2 mg/kg/Tag by osmotic mini-pump over 27 days, effect from 7 days after start until end of therapy, Figur 3 C, 2 mg/kg) was “verminderten Schmerzempfindlichkeit der neuropathischen Extremität; also recorded: signifikanten Verminderung von mechanischer Allodynie”. For the same molecule, the “Rückzugsschwellenwerte in Antwort auf eine mechanische Stimulation der neuropathischen Extremität” value (C57BL/6-Maus; mice, intraperitoneal 2 mg/kg versus Kochsalzlösung 0,9%, Figur 1) was “deutliche Anhebung der gemessenen Rückzugsschwellenwerte”, the “unerwünschte neuromotorische Wirkungen” value (Mäusen) was “nicht zu unerwünschten neuromotorischen Wirkungen” and the “Aktivität (Open-field Test)” value (Mäusen; 2 mg/kg) was “keine Veränderungen der Aktivität”. The “Wegstrecken und Aufenthaltsdauern (Open-Field-Test)” value (Mäusen; sc, 2 mg/kg) was “keine Unterschiede in Wegstrecken und Aufenthaltsdauern”.
